# Changes are numbered by the printed parent chain. Names may count otherwise.
# B1: E. coli GlmS mutant GlmS*124, SEQ ID NO:8 (Leu469Pro) (strain 2123-124) (Escherichia coli K-12; L469P) (protein)
# chain: CGIVGAIAQRDVAEILLEGLRRLEYRGYDSAGLAVVDAEGHMTRLRRLGKVQMLAQAAEEHPLHGGTGIAHTRWATHGEPSEVNAHPHVSEHIVVVHNGIIENHEPLREELKARGYTFVSETDTEVIAHLVNWELKQGGTLREAVLRAIPQLRGAYGTVIMDSRHPDTLLAARSGSPLVIGLGMGENFIASDQLALLPVTRRFIFLEEGDIAEITRRSVNIFDKTGAEVKRQDIESNLQYDAGDKGIYRHYMQKEIYEQPNAIKNTLTGRISHGQVDLSELGPNADELLSKVEHIQILACGTSYNSGMVSRYWFESLAGIPCDVEIASEFRYRKSAVRRNSLMITLSQSGETADTLAGLRLSKELGYLGSLAICNVPGSSLVRESDLALMTNAGTEIGVASTKAFTTQLTVLLMLVAKLSRLKGLDASIEHDIVHGLQALPSRIEQMLSQDKRIEALAEDFSDKHHAPFLGRGDQYPIALEGALKLKEISYIHAEAYAAGELKHGPLALIDADMPVIVVAPNNELLEKLKSNIEEVRARGGQLYVFADQDAGFVSSDNMHIIEMPHVEEVIAPIFYTVPLQLLAYHVALIKGTDVDQPRNLAKSVTVE
# notes: made in house; host or cells: E. coli strain 2123-124, cell extract
# B2: E. coli GlmS mutant GlmS*72, SEQ ID NO:14 (Glu15Lys, Asp387Val, Ser450Pro, Glu525Gly) (strain 2123-72) (Escherichia coli K-12; D387V/E15K/E525G/S450P) (protein)
# chain: B1 chain with E14K, D386V, S449P, P468L, E524G
# notes: made in house; host or cells: E. coli strain 2123-72 (from 7101-17(DE3), plasmid with glmS*72 integrated), cell extract
# How the values were obtained:
# [1] = target: T1, E. coli glucosamine synthase GlmS*54 (Escherichia coli, UniProt P17169, A39T/G472S/R250C); assay: Effects of phosphorylated sugars on glucosamine synthase; type: biochemical
# T1 construct: made in house; host or cells: E. coli 7107-18 (printed '7017-18'; T7-glmS*54 integrated at galK) and strains derived from it; crude extract
# Protocol: (§1) Glucosamine synthetase activity was examined in the presence of various phosphorylated sugars. Crude enzyme extracts was prepared from cells of 7017-18 grown in shake flasks for 24 hours with lactose induction.
# [2] = target: E. coli GlmS mutant GlmS*110 (Escherichia coli, UniProt P17169); assay: GlmS inhibition and Michaelis-Menten kinetics; type: biochemical; details: read-out: Km (fructose-6-P)
# Protocol: (§2) Different glucosamine synthetase enzymes, including native B. subtillus GlmS, native E. coli GlmS and mutant E. coli GlmS, were studied in vitro. Cells of various E. coli strains were grown in the M9A medium, harvested, and frozen. Cells extracts were prepared and the glucosamine synthetases were characterized and compared.
# (§3) Enzyme sensitivities to the reaction product glucosamine-6-P were examined. […] This figure highlights the dramatic difference between the wild type GlmS and these mutant GlmS strains.
# (§4) The Mutants 2123-54 and the B. subtilis enzyme have higher Ki values (Table 6). Measured Ki constants for several of these mutants are 4 to 8 times the value for the native enzyme in strain 2123-12. From shake flask studies it is apparent that decreased sensitivity to glucosamine-6-P allows higher glucosamine levels to accumulate.
# (§5) These values are slightly higher than those obtained with the native enzyme.
# [3] = target: E. coli GlmS mutant GlmS*69 (Escherichia coli, UniProt P17169); assay: GlmS inhibition and Michaelis-Menten kinetics; type: biochemical; details: read-out: Km (fructose-6-P)
# Protocol: as §2, §3, §4, §5
# [4] = target: E. coli glucosamine synthase GlmS*54, SEQ ID NO:6 (Ala39Thr, Arg250Cys, Gly472Ser) (Escherichia coli, UniProt P17169, A39T/G472S/R250C); assay: Effects of phosphorylated sugars on glucosamine synthase, crude extract of lactose-induced 7107-18 cells; type: biochemical; details: 10 mM or relatively high concentration
# Protocol: as §1
# [5] = Glucosamine stability in cell-free M9A medium; type: physicochemical; details: for loss of glucosamine: 60 g l-1, cell-free M9A-glucose, 30 C, 52 hours; for glucosamine degradation: cell-free M9A + 40 g l-1 glucose
# Protocol: Glucosamine stability was tested in cell-free M9A medium (14 g l^−1 K2HPO4, 16 g l^−1 KH2PO4, 1 g l^−1 Na3citrate.2H2O, 5 g l^−1 (NH4)2SO4, 1 mM MgSO4, 1 mM CaCl2, pH 7.0) supplemented with 40 g l^−1 glucose. Glucosamine was prepared as a 30% glucosamine-HCl concentrated solution and was added to final concentrations of 0, 4, 13, 26 and 42 g l^−1 (50 ml total in 250-ml flask). The pH of the medium was adjusted to pH 6.9. Flasks were placed on a shaker and agitated at about 225 rpm. Glucosamine levels and pH were monitored at 30° C. for about 24 hours. […] The degradation was only about 25% when the starting glucosamine concentration was 4 g l^−1. Glucosamine degradation was accompanied by a decline of pH in the medium. In the 42 g l^−1 glucosamine sample the pH in the medium was lowered by 0.7 units (from 6.9 to 6.2) after a 24-hr period, as compared to a pH change of only about 0.15 units in medium without glucosamine.
# The breakdown of glucosamine (60 g l^−1) at four starting pH levels was monitored at 30° C. in cell-free M9A-glucose (40 g l^−1) for 52 hours. At each sampling time, the solutions were readjusted to their original pH. Each condition was run in triplicate. […] The loss of glucosamine was 68% at pH 7.0 as compared to 18% at pH 5.5.
# To test the involvement of the aldehyde group, degradation was monitored in M9A medium containing 30 g l^−1 glucosamine with and without 40 g l^−1 glucose. If the aldehyde group is involved, the presence of glucose would affect the rate of glucosamine degradation/polymerization.
# [6] = tested on: E. coli 7107-18
# Protocol: Batches of M9A medium with 40 g l^−1 glucose and 20 g 1-1 GlcN were adjusted to five different pHs. One set of flasks was immediately inoculated with 7107-18 cells. Replicate flasks of the same media were incubated without cells for 10 hours, before inoculation. Seven times over 48 hours, flasks were sampled to measure pH, OD600, and GlcN concentration. At each sample point, the pH of the culture was readjusted back to the initial settings.
# Glucosamine is vital for E. coli growth since it is a precursor for the synthesis of important cell wall components. E. coli is also capable of using Glucosamine and N-acetylglucosamine as the sole carbon source. The catabolism of the amino sugars requires a functional glucosamine deaminase encoded by the nagB gene, which was deleted in strain 7107-18. […] Experiments were carried out to investigate if glucosamine affects E. coli 7107-18 cell growth and survival in medium containing 40 g l^−1 glucose.
# [7] = Stability of glucosamine in stored culture supernatant samples; type: physicochemical
# Protocol: Shake flask culture samples were assayed by both the HPLC method and the colorimetric methods. The culture supernatants were obtained by centrifugation and filtration to remove particles, and stored at -20° C. until analysis. HPLC was calibrated using a single point 2500 ppm standard solution prepared in […] medium. After thawing, samples were immediately analyzed by HPLC. After remaining in the autosampler overnight, the samples were analyzed again. Agreement was very good between the two methods.
# [8] = Glucosamine stability under acid/heat hydrolysis conditions; type: physicochemical; details: for glucosamine stability with heating: 10 g/l in M9A, 100 C
# Protocol: In the first experiment N-acetylglucosamine (10 g/l in […] medium without glucose) was hydrolyzed at 100° C. with various levels of hydrochloric acid. In a parallel experiment, glucosamine was subjected to the same treatments to determine its stability under hydrolysis conditions. Conversion of N-acetylglucosamine to glucosamine was determined by monitoring the amount of glucosamine generated by the hydrolysis reaction. Glucosamine was determined by an HPLC method based on that described by Way et al. (Journal of Liquid Chromatography and Related Technologies, 23:2861, 2000). Some specific details of the HPLC method are given below: column: […] Both the amount of remaining N-acetylglucosamine and the amount of formed glucosamine were monitored. N-acetylglucosamine was measured by HPLC using a standard carbohydrate system. Some specific details are given below: column: […] Glucosamine was measured using the ion pair HPLC column as described above. […] At 100° C. conversion was complete by 2.5 hours. […] At lower temperatures, some hydrolysis was observed, but this was much slower. […] Acid hydrolysis of N-acetylglucosamine at 90° C. was performed. […] A series of 12-ml glass screw capped tubes with Teflon lined caps were employed. Each tube represented a separate time point (0, 15, 30, 45, 60, 90 minutes) and contained 2 ml of the N-acetylglucosamine/hydrochloric acid solution. Tubes were heated in a heating block equilibrated at 90° C. Tubes were removed at appropriate times and quick cooled in ice water. Appropriate dilutions were made in and samples analyzed by HPLC for glucosamine and N-acetylglucosamine. […] Kinetics of N-acetylglucosamine disappearance were essentially the same for all four solutions. Hydrolysis is very rapid at 90° C. […] No N-acetylglucosamine was detected at 60 or 90 minutes. After 1 hour at 90° C., N-acetylglucosamine was no longer detected even with 20% N-acetylglucosamine.
# [9] = Degradation in hydrochloric acid at 90-100 C based on ammonia formation; type: physicochemical; details: 5% and 10% glucosamine hydrochloride, 12% and 20% hydrochloric acid, 90 C, 1-24 hours
# Protocol: Glucosamine degradation was examined at 90° C. and 100° C. using 5% and 10% glucosamine hydrochloride (w/w) with 12% and 20% hydrochloric acid by weight. Samples were incubated from 1-24 hours and assayed enzymatically for ammonia using glutamate dehydrogenase. […] Glucosamine degradation is based on ammonia formation.
# N-acetylglucosamine was hydrolyzed to glucosamine at 90° C. using the hybridization oven. The reaction was carried out inside a screw capped glass tube. The 30% hydrochloric acid (30 g) was preincubated at 90° C. for 1 hour. After this 10 g solid N-acetylglucosamine was added, quickly dissolved, and a To sample taken. Samples were taken at 30-minute intervals over the next three hours. […] Samples were analyzed for ammonia enzymatically.
# [10] = tested on: E. coli strain 7107-18; assay: Effects of glucosamine and N-acetylglucosamine on growth and survival of E. coli 7107-18; type: cell-based, Escherichia coli
# Protocol: As shown in Example 11, glucosamine is unstable at the regular pH range used for E. coli growth. […] The toxicity was attributed to at least partially to GlcN degradation products in media with a starting pH of 7.0. […] However, low pH levels are known to limit cell growth. Therefore, experiments were conducted in which 7107-18 was grown at pH 7.0, 6.0, 5.5, 5.0 and 4.7. The main objectives were to study cell growth at these lower pHs (with GlcN), and to see if the previously observed cell death caused by GlcN degradation could be reduced at lower pHs.
# Cells were inoculated into M9A-glucose (40 g/L) containing 62 g/L N-acetyl glucosamine.
# [11] = substrate: O=P(O)(O)OC[C@H]1OC(O)(CO)[C@@H](O)[C@@H]1O; assay: GlmS inhibition and Michaelis-Menten kinetics; type: biochemical, Escherichia coli
# Protocol: as §2, §3, §4, §5
# T1 sequence (P17169 2-609 A39T/R250C/G472S): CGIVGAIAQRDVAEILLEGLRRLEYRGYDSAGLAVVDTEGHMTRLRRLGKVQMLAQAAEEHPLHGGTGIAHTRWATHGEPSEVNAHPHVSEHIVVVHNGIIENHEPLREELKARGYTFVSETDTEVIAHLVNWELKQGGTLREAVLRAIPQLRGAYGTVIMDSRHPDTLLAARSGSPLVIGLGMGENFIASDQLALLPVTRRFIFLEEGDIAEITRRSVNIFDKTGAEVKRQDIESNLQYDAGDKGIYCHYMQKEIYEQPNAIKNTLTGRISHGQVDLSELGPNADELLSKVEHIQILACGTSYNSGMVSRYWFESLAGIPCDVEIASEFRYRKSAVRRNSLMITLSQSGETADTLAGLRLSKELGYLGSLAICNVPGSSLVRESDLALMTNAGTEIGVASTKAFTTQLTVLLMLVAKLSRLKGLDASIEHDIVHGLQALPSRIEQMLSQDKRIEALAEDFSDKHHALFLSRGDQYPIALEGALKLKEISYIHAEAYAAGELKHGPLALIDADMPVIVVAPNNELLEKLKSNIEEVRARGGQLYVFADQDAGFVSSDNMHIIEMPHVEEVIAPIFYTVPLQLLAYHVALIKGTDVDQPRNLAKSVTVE
# Chain of E. coli GlmS mutant GlmS*69 (P17169 whole entry, change not shown): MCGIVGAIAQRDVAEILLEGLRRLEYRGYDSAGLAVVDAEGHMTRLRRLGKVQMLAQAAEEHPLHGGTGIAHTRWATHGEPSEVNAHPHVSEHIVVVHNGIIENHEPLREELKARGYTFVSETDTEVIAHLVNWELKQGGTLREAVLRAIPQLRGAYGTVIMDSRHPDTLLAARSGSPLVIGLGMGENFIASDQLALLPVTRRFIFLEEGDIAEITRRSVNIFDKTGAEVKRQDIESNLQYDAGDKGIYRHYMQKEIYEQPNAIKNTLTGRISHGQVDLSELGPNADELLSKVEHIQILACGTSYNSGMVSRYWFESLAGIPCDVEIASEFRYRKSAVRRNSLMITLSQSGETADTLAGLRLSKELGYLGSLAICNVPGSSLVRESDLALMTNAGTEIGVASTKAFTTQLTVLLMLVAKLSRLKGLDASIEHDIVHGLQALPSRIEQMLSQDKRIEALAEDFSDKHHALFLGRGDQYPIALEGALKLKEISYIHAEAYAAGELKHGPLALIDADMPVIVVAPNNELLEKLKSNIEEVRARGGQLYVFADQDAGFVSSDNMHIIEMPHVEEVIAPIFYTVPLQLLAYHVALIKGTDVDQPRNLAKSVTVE
# Chain of E. coli GlmS mutant GlmS*110 (P17169 whole entry, stated change not applied): as the sequence (P17169 whole entry, change not shown) above
# Chain of E. coli glucosamine synthase GlmS*54, SEQ ID NO:6 (Ala39Thr, Arg250Cys, Gly472Ser) (P17169 whole entry A39T/R250C/G472S): as the sequence (P17169 whole entry, change not shown) above, with A39T, R250C, G472S counted along it
molecule,measurement,setting,value
"CC(=O)N[C@H]1C(OP(=O)(O)O)O[C@H](CO)[C@@H](O)[C@@H]1O (stereo partly shown) [N-acetylglucosamine-1-P, N-acetylglucosamine-1-phosphate]",activity at 10000 µM,[1],100%
"O=P(O)(O)OC[C@H]1OC(O)(CO)[C@@H](O)[C@@H]1O (stereo partly shown) [fructose-6-P, fructose-6-phosphate]",Km,[2],410 µM
same,Km,[3],350 µM
"N[C@H]1C(OP(=O)(O)O)O[C@H](CO)[C@@H](O)[C@@H]1O (stereo partly shown) [glucosamine-1-P, glucosamine-1-phosphate]",activity at 10000 µM,[1],79%
same,inhibition of glucosamine synthetase (in words),[1],inhibited
"N[C@H]1[C@@H](OP(=O)(O)O)O[C@H](CO)[C@@H](O)[C@@H]1O [glucosamine-1-P, glucosamine-1-phosphate]",inhibition of glucosamine synthetase (in words),[4],inhibited the enzyme at 10 mM
N[C@H]1C(O)O[C@H](CO)[C@@H](O)[C@@H]1O (stereo partly shown) [glucosamine],stability of glucosamine (in words),"[5]; 0-42 g l-1 in cell-free M9A-glucose, pH 6.9, 30 C",unstable
same,glucosamine breakdown with versus without 40 g l-1 glucose,[5]; 30 g l-1 glucosamine in M9A medium,No significant difference
same,decline of pH in the medium,"[5]; 42 g l-1 glucosamine, 24-hr period (6.9 to 6.2)",0.7 units
same,loss of glucosamine,[5]; pH 5.5,18%
same,loss of glucosamine,[5]; pH 7.0,68%
same,glucosamine degradation,"[5]; starting 4 g l-1, pH 6.9, 30 C, about 24 hours",about 25%
same,glucosamine degradation,"[5]; starting 42 g l-1, pH 6.9, 30 C, less than a day",More than half
same,growth of freshly inoculated cultures,"[6]; 10 and 20 g of glucosamine per liter, medium with 40 g l-1 glucose",slightly inhibited
same,toxicity on strain 7107-18,[6]; 20 g l-1 glucosamine pre-incubated in the medium (pH 7.0) for 3.5 hrs prior to inoculation,Toxicity was observed
same,cell growth after inoculation into pre-incubated medium,"[6]; 20 g l-1 glucosamine, medium incubated 10 hours before inoculation, pH 7.0 to 4.7",very poor
same,cell growth without glucosamine pre-incubation,"[6]; 20 g l-1 glucosamine, pH 7.0",good growth
same,viable counts relative to inoculation levels,[6]; 35 g l-1 glucosamine,10^5 fold less than inoculation levels
same,"cell growth, inoculated immediately",[6]; 35 g l-1 glucosamine in M9A-glucose (40 g l-1),grew reasonably well
same,cell survival in pre-incubated medium,"[6]; 35 g l-1 glucosamine, medium pre-incubated as short as 3.5 hours",died rapidly
same,viable count after 52 hrs,[6]; 40 g glucosamine per liter,about one-fifth the original number
same,cell growth and survival,"[6]; 40 g glucosamine per liter, killing after about 16 hours",prevented cell growth and began to kill the cells
same,cell survival without medium pre-incubation,[6]; 50 g l-1 glucosamine,Cells died
same,glucosamine concentration after storage,"[7]; filtered culture samples, -20 C, several weeks",no decrease in glucosamine concentration
same,glucosamine concentration after storage,"[7]; filtered samples, room temperature, overnight",did not result in any decrease in glucosamine concentration
same,glucosamine degradation,"[8]; 20 g/l, 1 N hydrochloric acid, 35, 60 or 100 C, 24 hours",No degradation was observed
same,loss of glucosamine,"[8]; 90 C, 12% and 16% hydrochloric acid, 90 minutes",No large loss of glucosamine was observed
same,glucosamine stability with heating,"[8]; pH 1.0 or lower, hydrochloric acid",stable
same,glucosamine stability with heating,[8]; pH higher than 1.0,a significant amount of glucosamine was lost
same,glucosamine degradation based on ammonia formation (in words),[9],significantly higher with higher acid concentration
same,viable count relative to original number,"[10]; 40 g per liter, after 52 hrs",about one-fifth
same,concentration at which toxicity was observed,[10]; pre-incubated in medium (pH 7.0) for 3.5 hrs prior to inoculation,20000 µg/mL
B1,Km,[11],1100 µM
B2,Km,[11],950 µM
